Measured values published in ChEMBL document CHEMBL1132503, “N'-[2-(2-thiophene)ethyl]-N'-[2-(5-bromopyridyl)] thiourea as a potent inhibitor of NNI-resistant and multidrug-resistant human immunodeficiency virus-1” (Bioorg Med Chem Lett, 1999).

Legend:
[1] = target: Human immunodeficiency virus type 1 reverse transcriptase (Human immunodeficiency virus 1) (UniProt Q72547); test: (§1) Inhibition of recombinant reverse transcriptase (RT) in cell-free Quan-T-RT assay system
[2] = target: Human immunodeficiency virus type 1 reverse transcriptase (Human immunodeficiency virus 1, UniProt Q72547); test: as §1
[3] = Ability to inhibit the replication of RT-MDR (V106A) strain of HIV-1 p24 antigen production in PBMC; type: functional; conditions: Homo sapiens
[4] = Ability to inhibit the replication of A17 variant (Y181C,K103N) strain of HIV-1 p24 antigen production in PBMC; type: functional, Homo sapiens
[5] = Ability to inhibit the replication of HTLV IIIb strain of HIV-1 p24 antigen production in PBMC; type: functional; conditions: Homo sapiens
[6] = Ability to inhibit the replication of A17 (Y181C) strain of HIV-1 p24 antigen production in PBMC; type: functional; conditions: Homo sapiens
[7] = Cytotoxic concentration was evaluated using microculture tetrazolium assay (MTA); type: functional; conditions: Homo sapiens
[8] = Cytotoxicity was evaluated using microculture tetrazolium assay (MTA); type: functional; conditions: Homo sapiens

SMILES | IC90 [1] [nM] | IC50 [2] [nM] | IC50 [3] [nM] | IC50 [4] [nM] | IC50 [5] [nM] | IC50 [6] [nM] | CC50 [7] [nM] | CC50 [8] [nM]
S=C(NCCc1c[nH]c2ccccc12)Nc1ccc(Br)cn1 | > 100000 | 900 | – | – | – | – | – | –
Cc1ccnc2c1NC(=O)c1cccnc1N2C1CC1 [NEVIRAPINE] | – | – | 5000 | > 100000 | 34 | > 100000 | 10500 | –
S=C(NCCN1CCOCC1)Nc1ccc(Br)cn1 | > 100000 | > 100000 | – | – | – | – | – | –
CCOCn1c(Cc2ccccc2)c(C(C)C)c(=O)[nH]c1=O [EMIVIRINE] | – | – | 270 | – | – | – | > 100000 | –
S=C(NCCc1ccc2c(c1)OCO2)Nc1ccc(Br)cn1 | > 100000 | 700 | – | – | – | – | – | –
S=C(NCCc1ccco1)Nc1ccc(Br)cn1 | > 100000 | 1200 | – | – | – | – | – | –
S=C(NCCc1c[nH]cn1)Nc1ccc(Br)cn1 | > 100000 | – | – | – | – | – | – | –
S=C(NCCc1cnc[nH]1)Nc1ccc(Br)cn1 | – | > 100000 | – | – | – | – | – | –
S=C(NCCc1cccs1)Nc1ccc(Br)cn1 | 15000 | 800 | 4 | 3300 | 30 | 48 | > 100000 | –
Cc1cn([C@H]2C[C@H](N=[N+]=[N-])[C@@H](CO)O2)c(=O)[nH]c1=O [ZIDOVUDINE] | – | > 100000 | 200 | 4 | – | 6 | > 100000 | –
S=C(NCCN1CCCC1)Nc1ccc(Br)cn1 | > 100000 | 4900 | – | – | – | – | – | –
S=C(NCCN1CCCCC1)Nc1ccc(Br)cn1 | – | 600 | > 100000 | > 100000 | 1 | > 100000 | > 100000 | –
CC(C)Nc1cccnc1N1CCN(C(=O)c2cc3cc(NS(C)(=O)=O)ccc3[nH]2)CC1 [DELAVIRDINE] | – | – | 400 | > 100000 | 9 | 50000 | 3600 | –
S=C(NCCc1ccccn1)Nc1ccc(Br)cn1 [TROVIRDINE] | 12000 | 600 | 20 | > 100000 | 7 | 500 | > 100000 | –
CN1CCCC1CC/N=C(\S)Nc1ccc(Br)cn1 (stereo unspecified) | > 100000 | > 100000 | – | – | – | – | – | –
Fc1ccccc1CC/N=C(\S)Nc1ccc(Br)cn1 | – | – | 5 | 41000 | < 1 | 200 | – | > 100000
